Source: the supplement of paper PMC10132981, “Formate overflow drives toxic folate trapping in MTHFD1 inhibited cancer cells” (Nature Metabolism, 2023)

Experiments:
[1] = system: SW620 MTHFD2-/-; experiment: EC50 for viability (resazurin, 96 h); details: RPMI+GlutaMAX (5% dFBS, 1% P/S)
[2] = system: SW620 MTHFD2 -/-; experiment: EC50 for viability (resazurin, 96 h); details: RPMI+GlutaMAX (5% dFBS, 1% P/S)
[3] = system: SW620 WT; experiment: EC50 for viability (resazurin, 96 h); details: RPMI+GlutaMAX (5% dFBS, 1% P/S)
[4] = system: SW620; experiment: EC50 for viability (resazurin, 96 h)
[5] = system: HCT116; experiment: EC50 for viability (resazurin, 96 h); details: RPMI+GlutaMAX (10% FBS, 1% P/S)
[6] = system: SW620; experiment: cell viability relative to lowest-dose well (resazurin, 96 h); higher = more viable; details: RPMI + 10% FBS
In short: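 Compounds from 10 mM DMSO stocks were dispensed as dilution series onto HCT116 (500 cells/well) or SW620 (1,000 cells/well) cells growing in 384-well plates in 50 µl RPMI, 10% FBS and a metabolite supplement. Plates were incubated 96 h at 37 °C, 5% CO2, then resazurin (10 µg ml^−1) was added and its conversion to resorufin read by fluorescence at 595 nm after 5 h. Viability is shown as percent of the lowest-dose well for independent replicate cultures. Viability was read by resazurin-to-resorufin conversion and normalised to the lowest-dose vehicle well (=100%).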

CN(Cc1cnc2nc(N)nc(N)c2n1)c1ccc(C(=O)N[C@@H](CCC(=O)O)C(=O)O)cc1 [methotrexate]
Details	EC50 for viability [nM]
[1], metabolite supplement: Formate	2.14
[1], metabolite supplement: Hypoxanthine	12
[1], metabolite supplement: Hypoxanthine + Formate	12.9
[2], metabolite supplement: Hypoxanthine	16.7
[2], metabolite supplement: Sodium Formate	10.6
[2], metabolite supplement: Thymidine	2.67
[2], metabolite supplement: Thymidine + Sodium Formate	9.38
[2], metabolite supplement: Vehicle	2.33
[3], metabolite supplement: Adenine	31
[3], metabolite supplement: Adenosine	34.5
[3], metabolite supplement: Guanosine	19.8
[3], metabolite supplement: Hypoxanthine	21.1
[3], metabolite supplement: Hypoxanthine + AICAr 10 µM	18.1
[3], metabolite supplement: Hypoxanthine + AICAr 30 µM	21.9
[3], metabolite supplement: Hypoxanthine + AICAr 50 µM	14.2
[3], metabolite supplement: Hypoxanthine + AICAr 100 µM	11.3
[3], metabolite supplement: Sodium Formate	6.74
[3], metabolite supplement: Thymidine	8.47
[3], metabolite supplement: Thymidine + Sodium Formate	6.79
[3], metabolite supplement: Vehicle	6.53
[5], metabolite supplement: Hypoxanthine	20.3
[5], metabolite supplement: Thymidine	12.6

Details	EC50 for viability [nM]	cell viability [%]
[4], HPLM (5% dFBS, 1% P/S), metabolite supplement: Vehicle	27	–
[4], RPMI+GlutaMAX (5% dFBS, 1% P/S), metabolite supplement: 50 µM Hypoxanthine	21.8	–
[4], RPMI+GlutaMAX (5% dFBS, 1% P/S), metabolite supplement: Vehicle	8.7	–
[4], RPMI+GlutaMAX (10% FBS, 1% P/S), metabolite supplement: Folic acid	96.3	–
[4], RPMI+GlutaMAX (10% FBS, 1% P/S), metabolite supplement: Folinic acid	366	–
[4], RPMI+GlutaMAX (10% FBS, 1% P/S), metabolite supplement: Hypoxanthine	26.2	–
[4], RPMI+GlutaMAX (10% FBS, 1% P/S), metabolite supplement: Thymidine	12.4	–
[4], RPMI+GlutaMAX (10% FBS, 1% P/S), metabolite supplement: Thymidine + Folic acid	81.8	–
[4], RPMI+GlutaMAX (10% FBS, 1% P/S), metabolite supplement: Thymidine + Folinic acid	388	–
[4], RPMI+GlutaMAX (10% FBS, 1% P/S), metabolite supplement: Vehicle	11.6	–
[6], 0.001 µM, metabolite supplement: 50uM thymidine	–	96.3
[6], 0.001 µM, metabolite supplement: 50uM thymidine + 250uM hypoxanthine	–	95.7
[6], 0.001 µM, metabolite supplement: 250uM hypoxanthine	–	98.8
[6], 0.001 µM, metabolite supplement: vehicle	–	98
[6], 0.00278 µM, metabolite supplement: 50uM thymidine	–	95
[6], 0.00278 µM, metabolite supplement: 50uM thymidine + 250uM hypoxanthine	–	94.5
[6], 0.00278 µM, metabolite supplement: 250uM hypoxanthine	–	99.5
[6], 0.00278 µM, metabolite supplement: vehicle	–	96.3
[6], 0.00774 µM, metabolite supplement: 50uM thymidine	–	76.7
[6], 0.00774 µM, metabolite supplement: 50uM thymidine + 250uM hypoxanthine	–	93.4
[6], 0.00774 µM, metabolite supplement: 250uM hypoxanthine	–	96.2
[6], 0.00774 µM, metabolite supplement: vehicle	–	79.3
[6], 0.0215 µM, metabolite supplement: 50uM thymidine	–	42.2
[6], 0.0215 µM, metabolite supplement: 50uM thymidine + 250uM hypoxanthine	–	97.4
[6], 0.0215 µM, metabolite supplement: 250uM hypoxanthine	–	75.1
[6], 0.0215 µM, metabolite supplement: vehicle	–	60.4
[6], 0.0599 µM, metabolite supplement: 50uM thymidine	–	34.3
[6], 0.0599 µM, metabolite supplement: 50uM thymidine + 250uM hypoxanthine	–	90.2
[6], 0.0599 µM, metabolite supplement: 250uM hypoxanthine	–	32.8
[6], 0.0599 µM, metabolite supplement: vehicle	–	33.7
[6], 0.167 µM, metabolite supplement: 50uM thymidine	–	34.8
[6], 0.167 µM, metabolite supplement: 50uM thymidine + 250uM hypoxanthine	–	96.4
[6], 0.167 µM, metabolite supplement: 250uM hypoxanthine	–	28
[6], 0.167 µM, metabolite supplement: vehicle	–	26.9
[6], 0.464 µM, metabolite supplement: 50uM thymidine	–	33.1
[6], 0.464 µM, metabolite supplement: 50uM thymidine + 250uM hypoxanthine	–	94.7
[6], 0.464 µM, metabolite supplement: 250uM hypoxanthine	–	28.3
[6], 0.464 µM, metabolite supplement: vehicle	–	27
[6], 1.29 µM, metabolite supplement: 50uM thymidine	–	32.6
[6], 1.29 µM, metabolite supplement: 50uM thymidine + 250uM hypoxanthine	–	87.5
[6], 1.29 µM, metabolite supplement: 250uM hypoxanthine	–	28.4
[6], 1.29 µM, metabolite supplement: vehicle	–	26.4
[6], 3.59 µM, metabolite supplement: 50uM thymidine	–	30.9
[6], 3.59 µM, metabolite supplement: 50uM thymidine + 250uM hypoxanthine	–	83.6
[6], 3.59 µM, metabolite supplement: 250uM hypoxanthine	–	29.6
[6], 3.59 µM, metabolite supplement: vehicle	–	28.3
[6], 10 µM, metabolite supplement: 50uM thymidine	–	30.5
[6], 10 µM, metabolite supplement: 50uM thymidine + 250uM hypoxanthine	–	83.6
[6], 10 µM, metabolite supplement: 250uM hypoxanthine	–	29.5
[6], 10 µM, metabolite supplement: vehicle	–	29.3
